Here are results for 6 compounds from ChEMBL document CHEMBL1909046, “DrugMatrix in vitro pharmacology data”.

Tested on in the first test: not listed separately
The experiment in a line: DRUGMATRIX: Atrial Natriuretic Factor (ANF) radioligand binding (ligand: [125I] ANF (rat)). It counts as cell membranes, Cavia porcellus, Dunkin-Hartley, Adrenal gland, Membrane. To be noted: Not Active = under 50% inhibition at 10 µM.
Turning to `Oc1cccc(O)c1O` [PYROGALLOL], the IC50 result was “Not Active” and the Ki entry is listed as “Not Active”.

For the compound AURANOFIN, the IC50 entry was “Not Active” and the Ki result is given as “Not Active”.

Regarding GADOPENTETATE DIMEGLUMINE, the IC50 result is “Not Active” and the Ki result is reported as “Not Active”.

In the case of GENTAMICIN, the IC50 result is “Not Active” and the Ki entry is given as “Not Active”.

In the case of GRAMICIDIN, the IC50 entry is given as “Not Active” and the Ki result is given as “Not Active”.

In the case of NYSTATIN, the IC50 entry is listed as “Not Active” and the Ki entry was “Not Active”.

The next test concerns the target T1, Vasoactive intestinal polypeptide receptor 1 (Homo sapiens, UniProt P32241). Further: in other assays of this panel Not Active means under 50% inhibition at 10 µM.
T1 sequence (P32241 whole entry): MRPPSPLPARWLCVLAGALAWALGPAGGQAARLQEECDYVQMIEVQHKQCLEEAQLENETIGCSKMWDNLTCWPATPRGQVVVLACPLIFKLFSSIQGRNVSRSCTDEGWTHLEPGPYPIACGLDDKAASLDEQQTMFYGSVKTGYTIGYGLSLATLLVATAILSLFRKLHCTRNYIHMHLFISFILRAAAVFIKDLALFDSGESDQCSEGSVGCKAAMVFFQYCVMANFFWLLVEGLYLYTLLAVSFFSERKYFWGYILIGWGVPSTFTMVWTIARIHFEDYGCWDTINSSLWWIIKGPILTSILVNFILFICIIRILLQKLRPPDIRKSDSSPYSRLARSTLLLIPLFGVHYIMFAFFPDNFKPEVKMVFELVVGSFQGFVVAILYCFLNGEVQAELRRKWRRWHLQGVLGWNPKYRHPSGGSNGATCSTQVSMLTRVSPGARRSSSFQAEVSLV
The format is cell membranes, Membrane. Conditions: ht-29.
Consider `Oc1cccc(O)c1O` [PYROGALLOL], for which the IC50 entry is reported as “Not Active”.

As for AURANOFIN, the IC50 result is “Not Active” and the Ki entry is “Not Active”.

With GADOPENTETATE DIMEGLUMINE, the IC50 entry is “Not Active” and the Ki entry is “Not Active”.

In the case of GENTAMICIN, the IC50 result is “Not Active” and the Ki result was “Not Active”.

In the case of GRAMICIDIN, the IC50 entry is reported as “Not Active” and the Ki entry is reported as “Not Active”.

Consider NYSTATIN, for which the IC50 entry is recorded as “Not Active” and the Ki result is “Not Active”.

For the next test, the target named is Sodium-dependent dopamine transporter (Homo sapiens, UniProt Q01959). The experiment in a line: DRUGMATRIX: Dopamine Transporter radioligand binding (ligand: [125I] RTI-55). The format is cell membranes, CHO-K1, Membrane. To be noted: cho-k1; Not Active = under 50% inhibition at 10 µM.
Chain of Sodium-dependent dopamine transporter (Q01959 whole entry): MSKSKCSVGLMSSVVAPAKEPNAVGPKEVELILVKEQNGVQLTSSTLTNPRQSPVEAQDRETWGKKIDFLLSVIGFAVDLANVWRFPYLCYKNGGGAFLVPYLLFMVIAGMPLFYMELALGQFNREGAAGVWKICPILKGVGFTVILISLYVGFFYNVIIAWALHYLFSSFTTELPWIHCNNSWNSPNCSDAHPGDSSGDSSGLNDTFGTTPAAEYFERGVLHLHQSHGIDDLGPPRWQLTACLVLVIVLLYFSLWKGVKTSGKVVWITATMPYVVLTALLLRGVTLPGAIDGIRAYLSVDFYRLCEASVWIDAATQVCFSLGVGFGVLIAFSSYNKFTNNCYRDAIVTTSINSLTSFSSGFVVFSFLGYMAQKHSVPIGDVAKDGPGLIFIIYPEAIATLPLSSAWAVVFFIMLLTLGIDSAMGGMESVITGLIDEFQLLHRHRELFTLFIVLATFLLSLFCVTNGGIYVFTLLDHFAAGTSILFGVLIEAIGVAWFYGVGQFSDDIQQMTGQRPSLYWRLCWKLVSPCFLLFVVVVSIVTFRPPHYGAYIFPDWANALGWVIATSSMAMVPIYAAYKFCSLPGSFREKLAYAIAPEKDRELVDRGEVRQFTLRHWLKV
Turning to `Oc1cccc(O)c1O` [PYROGALLOL], the IC50 result is on record as “Not Active”.

Turning to AURANOFIN, the IC50 result is recorded as “Not Active” and the Ki entry is “Not Active”.

GADOPENTETATE DIMEGLUMINE: the IC50 result is listed as “Not Active” and the Ki result was “Not Active”.

GENTAMICIN: the IC50 result is “Not Active” and the Ki result is reported as “Not Active”.

Turning to GRAMICIDIN, the IC50 result is “Not Active” and the Ki entry is reported as “Not Active”.

On to NYSTATIN, for which the IC50 result is “Not Active” and the Ki result is listed as “Not Active”.

Tested on in the next test: not listed separately
The experiment in a line: DRUGMATRIX: Glutamate, Kainate radioligand binding (ligand: [3H] Kainic acid). It counts as cell membranes, Rattus norvegicus, Wistar, Brain, Membrane. Conditions: Not Active = under 50% inhibition at 10 µM.
Consider `Oc1cccc(O)c1O` [PYROGALLOL], for which the IC50 result was “Not Active” and the Ki entry is reported as “Not Active”.

For the compound AURANOFIN, the IC50 result is given as “Not Active” and the Ki entry is recorded as “Not Active”.

On to GADOPENTETATE DIMEGLUMINE, for which the IC50 result is “Not Active” and the Ki entry is “Not Active”.

As to GENTAMICIN, the IC50 entry was “Not Active” and the Ki entry is listed as “Not Active”.

With GRAMICIDIN, the IC50 entry is “Not Active” and the Ki result is listed as “Not Active”.

In the case of NYSTATIN, the IC50 result is on record as “Not Active” and the Ki entry is reported as “Not Active”.

A further test addresses T2, 3-hydroxy-3-methylglutaryl-coenzyme A reductase (Homo sapiens, UniProt P04035).
T2 sequence (P04035 whole entry): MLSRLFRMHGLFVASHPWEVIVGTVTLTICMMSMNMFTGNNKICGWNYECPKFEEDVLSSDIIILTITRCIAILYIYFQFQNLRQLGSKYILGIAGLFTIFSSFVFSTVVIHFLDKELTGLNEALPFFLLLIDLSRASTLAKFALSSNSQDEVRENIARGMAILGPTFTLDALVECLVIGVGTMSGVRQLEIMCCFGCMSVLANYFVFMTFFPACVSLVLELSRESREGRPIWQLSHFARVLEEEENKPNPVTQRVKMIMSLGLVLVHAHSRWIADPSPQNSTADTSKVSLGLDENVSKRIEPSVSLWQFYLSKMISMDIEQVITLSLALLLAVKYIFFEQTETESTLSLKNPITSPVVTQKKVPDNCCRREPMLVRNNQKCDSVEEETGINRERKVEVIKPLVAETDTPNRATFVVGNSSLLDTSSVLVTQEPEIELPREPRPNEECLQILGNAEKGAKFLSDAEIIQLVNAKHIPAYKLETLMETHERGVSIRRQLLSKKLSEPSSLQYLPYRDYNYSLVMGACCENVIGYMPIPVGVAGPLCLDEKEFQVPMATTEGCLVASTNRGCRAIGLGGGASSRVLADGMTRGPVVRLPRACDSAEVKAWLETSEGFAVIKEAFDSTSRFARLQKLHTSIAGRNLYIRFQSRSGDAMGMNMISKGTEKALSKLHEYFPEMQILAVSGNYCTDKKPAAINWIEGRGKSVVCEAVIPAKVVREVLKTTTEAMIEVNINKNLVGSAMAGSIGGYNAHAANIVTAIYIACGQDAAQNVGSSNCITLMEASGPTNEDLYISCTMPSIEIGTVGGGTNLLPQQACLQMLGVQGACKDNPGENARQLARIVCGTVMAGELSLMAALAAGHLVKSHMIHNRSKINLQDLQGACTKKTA
The arrangement: species or system Escherichia coli.
Settings: not given
Consider `Oc1cccc(O)c1O` [PYROGALLOL], for which the IC50 result is on record as “Not Active”.

Regarding AURANOFIN, the IC50 entry is listed as “Not Active” and the Ki entry is listed as “Not Active”.

Take GADOPENTETATE DIMEGLUMINE: the IC50 entry is on record as “Not Active” and the Ki result is given as “Not Active”.

On to GENTAMICIN, for which the IC50 result was “Not Active” and the Ki entry was “Not Active”.

For the compound GRAMICIDIN, the IC50 entry is “Not Active” and the Ki result is given as “Not Active”.

Take NYSTATIN: the IC50 entry is “Not Active” and the Ki result was “Not Active”.

Tested on in a further test: not listed separately
The experiment in a line: DRUGMATRIX: Potassium Channel [KATP] radioligand binding (ligand: [3H] Glyburide). It counts as cell membranes, Membrane. Conditions: hit-t15; Not Active = under 50% inhibition at 10 µM.
For the compound `Oc1cccc(O)c1O` [PYROGALLOL], the IC50 entry is given as “Not Active” and the Ki entry is on record as “Not Active”.

In the case of AURANOFIN, the IC50 entry is recorded as “Not Active” and the Ki entry is “Not Active”.

Regarding GADOPENTETATE DIMEGLUMINE, the IC50 entry was “Not Active” and the Ki entry is given as “Not Active”.

As for GENTAMICIN, the IC50 result was “Not Active” and the Ki result was “Not Active”.

On to GRAMICIDIN, for which the IC50 entry was “Not Active” and the Ki result is on record as “Not Active”.

Regarding NYSTATIN, the IC50 entry is listed as “Not Active” and the Ki result is recorded as “Not Active”.

The next test deals with T3, Progesterone receptor (Bos taurus, UniProt Q690N0).
T3 sequence (Q690N0 whole entry): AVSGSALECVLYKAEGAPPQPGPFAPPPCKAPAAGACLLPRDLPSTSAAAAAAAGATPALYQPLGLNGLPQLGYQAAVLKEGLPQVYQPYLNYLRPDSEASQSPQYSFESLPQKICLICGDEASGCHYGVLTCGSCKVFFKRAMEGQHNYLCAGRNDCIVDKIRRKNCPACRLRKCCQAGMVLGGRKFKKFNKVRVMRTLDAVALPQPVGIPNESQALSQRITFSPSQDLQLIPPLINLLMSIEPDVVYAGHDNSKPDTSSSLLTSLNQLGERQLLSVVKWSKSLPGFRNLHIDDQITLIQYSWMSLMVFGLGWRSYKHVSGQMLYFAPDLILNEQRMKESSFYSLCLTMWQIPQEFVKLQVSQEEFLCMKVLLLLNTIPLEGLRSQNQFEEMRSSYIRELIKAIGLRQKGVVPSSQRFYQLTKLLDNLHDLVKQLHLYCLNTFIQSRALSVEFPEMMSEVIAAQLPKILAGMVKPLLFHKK
The experiment in a line: DRUGMATRIX: Progesterone radioligand binding (ligand: [3H] R-5020). It counts as tissue-based, Uterus. To be noted: Not Active = under 50% inhibition at 10 µM.
On to `Oc1cccc(O)c1O` [PYROGALLOL], for which the IC50 entry was “Not Active”.

On to AURANOFIN, for which the IC50 entry was “Not Active” and the Ki entry was “Not Active”.

Consider GADOPENTETATE DIMEGLUMINE, for which the IC50 entry is “Not Active” and the Ki result is “Not Active”.

In the case of GENTAMICIN, the IC50 entry is reported as “Not Active” and the Ki entry is on record as “Not Active”.

Turning to GRAMICIDIN, the IC50 result was “Not Active” and the Ki entry was “Not Active”.

For the compound NYSTATIN, the IC50 result was “Not Active” and the Ki entry is “Not Active”.
